In experiment [1] the target is Polyadenylate-binding protein 1 (Homo sapiens, UniProt P11940). As to the kind of experiment: PABP1 MLLE–PAM2 interaction inhibitors, dose response, miRNA deadenylation inhibitor project, biochemical, fluorescence polarization, Cy5-PAM2 peptide, secondary (AID 602260). Conditions: read-out: IC50_Mean. The format is functional. On the technique in general: In fluorescence polarisation assays a small probe gives low polarisation when free and higher when bound to something large.
Polyadenylate-binding protein 1, sequence (P11940 whole entry): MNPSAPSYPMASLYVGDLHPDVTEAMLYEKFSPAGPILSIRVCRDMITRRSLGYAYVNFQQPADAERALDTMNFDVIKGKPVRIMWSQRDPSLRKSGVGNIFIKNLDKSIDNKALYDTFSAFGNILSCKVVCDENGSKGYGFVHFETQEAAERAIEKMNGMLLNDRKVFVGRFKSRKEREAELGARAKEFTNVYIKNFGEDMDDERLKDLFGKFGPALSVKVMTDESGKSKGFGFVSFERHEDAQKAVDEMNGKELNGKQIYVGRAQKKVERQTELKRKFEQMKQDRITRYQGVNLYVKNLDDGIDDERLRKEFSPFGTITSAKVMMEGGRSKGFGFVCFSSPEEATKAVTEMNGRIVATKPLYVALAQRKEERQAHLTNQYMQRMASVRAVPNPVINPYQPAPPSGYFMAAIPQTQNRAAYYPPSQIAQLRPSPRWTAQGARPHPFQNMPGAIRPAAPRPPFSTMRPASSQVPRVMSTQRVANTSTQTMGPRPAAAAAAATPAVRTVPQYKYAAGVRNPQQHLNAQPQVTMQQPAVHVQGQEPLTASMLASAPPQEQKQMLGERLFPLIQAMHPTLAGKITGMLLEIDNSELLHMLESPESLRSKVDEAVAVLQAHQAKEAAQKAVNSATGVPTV

The subject of experiment [2] is HEK293. As to the kind of experiment: NOD1 signaling inhibitors, primary screen, cell-based, luminescence, uHTS (AID 1578). In kind it is functional. Conditions: Homo sapiens.
In experiment [3] the test system is Streptococcus sp. 'group A'. The experiment is described as follows: growth inhibition of control SK(-) GAS strain, dose response, counter-screen for streptokinase expression inhibitor project, luminescence, kanamycin, BacTiterGlo, confirmation (AID 1900). The format is functional, organism-based.
For experiment [4], the target named is Mu-type opioid receptor (Homo sapiens, UniProt P35372). As to the kind of experiment: Counterscreen for agonists of heterodimerization of the mu 1 (OPRM1) and delta 1 (OPRD1) opioid receptors: Luminescence-based cell-based high throughput dose response assay to identify agonists of OPRM1 homodimerization. In kind it is functional. (A counterscreen serves to expose hits that act by an unwanted route or on another target.);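 also: U2OS cells expressing OPRM1 and beta-arrestin as split beta-galactosidase partners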
Mu-type opioid receptor, sequence (P35372 whole entry): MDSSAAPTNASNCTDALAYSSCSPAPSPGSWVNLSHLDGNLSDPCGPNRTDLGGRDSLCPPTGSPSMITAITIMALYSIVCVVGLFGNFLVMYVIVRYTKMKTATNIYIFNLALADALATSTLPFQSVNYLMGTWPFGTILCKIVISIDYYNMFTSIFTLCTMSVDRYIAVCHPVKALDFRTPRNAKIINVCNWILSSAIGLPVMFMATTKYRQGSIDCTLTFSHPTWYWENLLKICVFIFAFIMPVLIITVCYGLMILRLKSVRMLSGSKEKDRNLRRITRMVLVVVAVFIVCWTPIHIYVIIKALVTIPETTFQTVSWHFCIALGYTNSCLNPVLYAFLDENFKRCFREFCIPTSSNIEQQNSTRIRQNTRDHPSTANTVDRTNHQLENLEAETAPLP

In experiment [5] the target is 5-hydroxytryptamine receptor 5A (Homo sapiens, UniProt P47898). The experiment is described as follows: Counterscreen for agonists of OPRM1-OPRD1 heterodimerization: luminescence-based cell-based high throughput dose response assay to identify agonists of 5-hydroxytryptamine (serotonin) 5A receptor (HTR5A). [Related pubchem assays (depositor defined):AID504326, AID504355, AID504692, AID504904, AID504905]. In kind it is functional.
5-hydroxytryptamine receptor 5A, sequence (P47898 whole entry): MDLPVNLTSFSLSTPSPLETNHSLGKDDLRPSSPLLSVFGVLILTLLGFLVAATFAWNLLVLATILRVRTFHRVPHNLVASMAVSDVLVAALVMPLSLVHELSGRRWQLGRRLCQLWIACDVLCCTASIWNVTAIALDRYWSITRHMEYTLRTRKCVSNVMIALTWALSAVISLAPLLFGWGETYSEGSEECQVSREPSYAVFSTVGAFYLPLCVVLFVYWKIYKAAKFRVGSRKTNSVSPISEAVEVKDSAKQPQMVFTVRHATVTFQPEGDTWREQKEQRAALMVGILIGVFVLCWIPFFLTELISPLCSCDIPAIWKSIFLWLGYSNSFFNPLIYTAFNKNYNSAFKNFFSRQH

Experiment [6] has as its target T1, Sentrin-specific protease 8 (Homo sapiens, UniProt Q96LD8).
T1 sequence (Q96LD8 whole entry): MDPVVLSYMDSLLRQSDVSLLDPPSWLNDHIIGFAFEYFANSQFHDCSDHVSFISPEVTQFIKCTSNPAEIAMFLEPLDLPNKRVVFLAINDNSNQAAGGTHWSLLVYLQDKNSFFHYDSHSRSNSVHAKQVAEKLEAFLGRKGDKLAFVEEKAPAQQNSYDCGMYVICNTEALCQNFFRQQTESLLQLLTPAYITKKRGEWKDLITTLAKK
As to the kind of experiment: SENP8 protease inhibitors, SAR follow-up, biochemical, luminescence (AID 504501). The format is functional.

Experiment [7] addresses T2, Sentrin-specific protease 6 (Homo sapiens, UniProt Q9GZR1).
T2 sequence (Q9GZR1 whole entry): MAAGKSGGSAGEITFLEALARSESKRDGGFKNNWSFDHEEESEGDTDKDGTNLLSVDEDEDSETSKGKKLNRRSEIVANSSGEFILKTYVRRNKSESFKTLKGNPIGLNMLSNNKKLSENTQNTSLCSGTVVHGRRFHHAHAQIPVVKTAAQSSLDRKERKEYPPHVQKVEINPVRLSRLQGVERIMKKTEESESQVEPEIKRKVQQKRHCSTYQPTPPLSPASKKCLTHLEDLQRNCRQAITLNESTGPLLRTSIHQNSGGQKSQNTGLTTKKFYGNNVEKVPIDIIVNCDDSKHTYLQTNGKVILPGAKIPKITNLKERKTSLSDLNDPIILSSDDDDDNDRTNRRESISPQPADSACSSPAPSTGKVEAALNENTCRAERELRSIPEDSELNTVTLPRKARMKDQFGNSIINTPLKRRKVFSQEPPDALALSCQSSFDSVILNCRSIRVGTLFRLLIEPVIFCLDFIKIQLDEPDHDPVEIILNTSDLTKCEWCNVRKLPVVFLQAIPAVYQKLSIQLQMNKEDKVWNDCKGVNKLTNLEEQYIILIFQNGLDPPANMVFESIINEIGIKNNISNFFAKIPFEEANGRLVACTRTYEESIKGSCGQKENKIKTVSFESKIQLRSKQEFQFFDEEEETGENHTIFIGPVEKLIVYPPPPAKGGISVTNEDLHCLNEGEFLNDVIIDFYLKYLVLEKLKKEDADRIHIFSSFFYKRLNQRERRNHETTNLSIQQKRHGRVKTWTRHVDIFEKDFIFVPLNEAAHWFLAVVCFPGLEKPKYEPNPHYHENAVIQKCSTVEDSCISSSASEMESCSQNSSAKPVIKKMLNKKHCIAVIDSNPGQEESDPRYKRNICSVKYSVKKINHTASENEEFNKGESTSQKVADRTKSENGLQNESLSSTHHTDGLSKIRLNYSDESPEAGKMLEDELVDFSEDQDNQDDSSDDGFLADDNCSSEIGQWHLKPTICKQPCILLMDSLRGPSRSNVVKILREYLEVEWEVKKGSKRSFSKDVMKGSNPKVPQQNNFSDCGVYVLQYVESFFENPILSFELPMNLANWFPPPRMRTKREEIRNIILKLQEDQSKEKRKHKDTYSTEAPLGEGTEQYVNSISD
The experiment is described as follows: SAR Analysis of small molecule inhibitors of Sentrin-specific protease 6 (SENP6) using a Luminescent assay. [Related pubchem assays (depositor defined):AID2582, AID2599]. The format is functional.

Experiment [8] has as its target T3, Sentrin-specific protease 7 (Homo sapiens, UniProt Q9BQF6).
T3 sequence (Q9BQF6 whole entry): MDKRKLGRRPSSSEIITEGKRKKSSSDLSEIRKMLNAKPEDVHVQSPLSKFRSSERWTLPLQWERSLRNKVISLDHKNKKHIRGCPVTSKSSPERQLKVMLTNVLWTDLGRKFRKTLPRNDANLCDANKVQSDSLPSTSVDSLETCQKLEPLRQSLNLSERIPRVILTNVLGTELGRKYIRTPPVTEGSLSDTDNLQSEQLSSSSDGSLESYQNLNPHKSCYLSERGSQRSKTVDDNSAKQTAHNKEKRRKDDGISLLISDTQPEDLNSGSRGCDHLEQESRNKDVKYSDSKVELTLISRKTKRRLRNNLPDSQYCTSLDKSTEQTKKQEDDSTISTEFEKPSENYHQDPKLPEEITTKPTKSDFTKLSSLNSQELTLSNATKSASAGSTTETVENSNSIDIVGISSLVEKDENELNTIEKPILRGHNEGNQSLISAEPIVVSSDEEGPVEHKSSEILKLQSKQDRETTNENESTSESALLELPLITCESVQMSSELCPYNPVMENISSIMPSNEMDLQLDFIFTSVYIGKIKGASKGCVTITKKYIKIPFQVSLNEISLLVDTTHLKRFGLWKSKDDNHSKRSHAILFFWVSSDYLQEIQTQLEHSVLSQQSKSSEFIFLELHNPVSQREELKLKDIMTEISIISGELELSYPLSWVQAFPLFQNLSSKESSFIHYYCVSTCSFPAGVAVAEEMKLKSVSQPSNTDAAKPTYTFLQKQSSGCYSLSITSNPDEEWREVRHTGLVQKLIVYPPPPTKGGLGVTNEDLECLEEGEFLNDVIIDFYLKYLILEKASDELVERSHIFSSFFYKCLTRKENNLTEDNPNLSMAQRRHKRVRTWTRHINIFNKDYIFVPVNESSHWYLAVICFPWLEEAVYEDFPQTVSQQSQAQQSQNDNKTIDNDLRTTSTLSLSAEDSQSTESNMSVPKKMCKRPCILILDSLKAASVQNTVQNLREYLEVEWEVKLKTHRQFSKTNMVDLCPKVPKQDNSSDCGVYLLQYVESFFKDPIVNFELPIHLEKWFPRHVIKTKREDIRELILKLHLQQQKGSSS
The experiment is described as follows: SENP7 protease inhibitors, SAR follow-up, biochemical, luminescence (AID 504497). In kind it is functional.

A word on the EC50: it is the concentration that produces a half-maximal response.

Each structure is given as a SMILES string. Activity calls are given as the source filed them.

For `O=C1/C(=N\c2cccc(O)c2)C(N2CCCCC2)=C(O)c2ccccc21`, the IC50 in experiment [1] is > 66 µM (inactive).
Turning to `Cc1cc(/C=C2\SC(=S)N(C)C2=O)c(C)n1-c1ccc(O)cc1`, the EC50 was 9.47 µM (active) in experiment [2], 3.41 µM (active) in experiment [3], > 92.5 µM (inactive) in experiment [4] and > 92.5 µM (inactive) in experiment [5].
Turning to `Cc1ccc(C(=O)NNc2cc(N3CCCC3)nc(N3CCCC3)n2)cc1`, the IC50 in experiment [6] is 4.39 µM (active); in experiment [7], 2.3 µM (active); in experiment [8] it was 7.68 µM (active).

Values taken from ChEMBL document CHEMBL1201862, “PubChem BioAssay data set” (2004).
